The text below walks through data of patent US20200108031A1, “Treating Tumors Using TTFields Combined with ABT-751” (Novocure GmbH, priority 2018, published 2020).

Assay [1] relates to A172 cells. The assay is described as follows: Growth of A172 cells, TTFields alone and in combination with ABT-751. The assay is classed as cell-based. Conditions: ABT-751 1 μM, 8 hours, TTFields 200 kHz, 3.3 V/cm, 72 hours (continuous or 3×16 hours), FIG. 1. Here is the method: (§1) For the first two bars, both without (−) and with (+) ABT-751, TTFields were not applied. For the next two bars, both without (−) and with (+) ABT-751, TTFields were applied for three 16 hour intervals, and each of those 16 hour intervals was followed by an 8 hour interval during which TTFields were not applied. For the next two bars, both without (−) and with (+) ABT-751, TTFields were applied continuously for 72 hours. […] Data are mean±SEM; n≥5; Statistical significance was determined by one-way ANOVA; Tukey-corrected for multiple comparisons; *p<0.05, **p<0.01, ***p<0.001, ****p<0.0001. In all the experiments described herein, TTFields (200 kHz; 3.3V/cm) were applied using an Inovitro™ system.

The test system of assay [2] is A172 cells. The assay is described as follows: Colony formation (clonogenic survival) of A172 cells, TTFields alone and in combination with ABT-751. The format is cell-based. The settings on record: ABT-751 1 μM, 8 hours, TTFields 200 kHz, 3.3 V/cm, 72 hours (continuous or 3×16 hours), FIG. 2. Here is the method: as §1

Take `COc1ccc(S(=O)(=O)Nc2cccnc2Nc2ccc(O)cc2)cc1` [ABT-751, N-[2-(4-hydroxyanilino)pyridin-3-yl]-4-methoxybenzenesulfonamide]: the “synergy with TTFields on cell growth” value in the assay on A172 cells [1] was “synergizes”. In the assay with A172 cells [2], the “synergy with TTFields on colony formation” value was “synergizes”.
